Target: T1, human GLP-1 receptor (Homo sapiens, UniProt P43220)
T1 construct: expressed in transfected cells; host or cells: BHK467-12A (tk-ts13) baby hamster kidney cells; purified plasma membranes
Assay: Stimulation of cAMP formation in a cell line expressing the cloned human GLP-1 receptor
Format: biochemical
Conditions: cAMP production, purified plasma membranes from BHK467-12A (tk-ts13), AlphaScreen cAMP Assay Kit; read-out: Potency [EC50/nM]

T1 sequence (P43220 24-463): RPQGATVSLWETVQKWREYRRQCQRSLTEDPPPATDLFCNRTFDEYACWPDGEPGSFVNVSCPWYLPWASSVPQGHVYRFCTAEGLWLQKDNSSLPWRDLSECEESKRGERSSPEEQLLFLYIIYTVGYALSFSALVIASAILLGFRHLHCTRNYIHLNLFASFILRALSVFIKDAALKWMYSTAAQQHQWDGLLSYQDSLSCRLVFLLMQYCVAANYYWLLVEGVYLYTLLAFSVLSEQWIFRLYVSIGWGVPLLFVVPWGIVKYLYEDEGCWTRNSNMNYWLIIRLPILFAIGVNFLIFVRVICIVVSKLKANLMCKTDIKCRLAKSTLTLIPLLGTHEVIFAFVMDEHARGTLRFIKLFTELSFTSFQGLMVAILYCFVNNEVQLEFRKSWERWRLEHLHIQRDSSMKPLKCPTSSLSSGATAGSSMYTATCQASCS

EC50	Compound
0.05 nM	CCCCCCCCCCCCCCCCCC(=O)NCCOCCOCC(=O)NCCOCCOCC(=O)NCCOCCOCC(=O)NCCCC[C@H](NC(=O)[C@H](CCCNC(=N)N)NC(=O)CNC(=O)[C@H](CCCNC(=N)N)NC(=O)[C@@H](NC(=O)[C@H](CC(C)C)NC(=O)[C@H](Cc1c[nH]c2ccccc12)NC(=O)[C@H](C)NC(=O)[C@@H](NC(=O)[C@H](Cc1ccccc1)NC(=O)[C@H](CCC(=O)O)NC(=O)[C@H](CCCNC(=N)N)NC(=O)[C@H](C)NC(=O)[C@H](C)NC(=O)[C@H](CCC(N)=O)NC(=O)[C@H](CCC(=O)O)NC(=O)[C@H](CCC(=O)O)NC(=O)[C@H](CC(C)C)NC(=O)[C@H](Cc1ccc(O)cc1)NC(=O)[C@H](CO)NC(=O)[C@H](CO)NC(=O)[C@@H](NC(=O)[C@H](CC(=O)O)NC(=O)[C@H](CO)NC(=O)[C@@H](NC(=O)[C@H](Cc1ccccc1)NC(=O)[C@@H](NC(=O)CNC(=O)[C@H](CCC(=O)O)NC(=O)[C@H](C)NC(=O)CCc1c[nH]cn1)[C@@H](C)O)[C@@H](C)O)C(C)C)[C@@H](C)CC)C(C)C)C(N)=O [Example 19, N-epsilon37-(2-(2-(2-(2-(2-(2-(2-(2-(2-(Octadecanoylamino)ethoxy)ethoxy)acetylamino)ethoxy)ethoxy)acetylamino)ethoxy)ethoxy)acetyl)[desaminoHis7,Glu22,Arg26,Arg34,Lys37] GLP-1 (7-37)amide]
0.25 nM	CC[C@H](C)[C@H](NC(=O)[C@H](Cc1ccccc1)NC(=O)[C@H](CCC(=O)O)NC(=O)[C@H](CCCNC(=N)N)NC(=O)[C@H](C)NC(=O)[C@H](C)NC(=O)[C@H](CCC(N)=O)NC(=O)[C@H](CCC(=O)O)NC(=O)[C@H](CCC(=O)O)NC(=O)[C@H](CC(C)C)NC(=O)[C@H](Cc1ccc(O)cc1)NC(=O)[C@H](CO)NC(=O)[C@H](CO)NC(=O)[C@@H](NC(=O)[C@H](CC(=O)O)NC(=O)[C@H](CO)NC(=O)[C@@H](NC(=O)[C@H](Cc1ccccc1)NC(=O)[C@@H](NC(=O)CNC(=O)[C@H](CCC(=O)O)NC(=O)[C@H](C)NC(=O)CCc1c[nH]cn1)[C@@H](C)O)[C@@H](C)O)C(C)C)C(=O)N[C@@H](C)C(=O)N[C@@H](Cc1c[nH]c2ccccc12)C(=O)N[C@@H](CC(C)C)C(=O)N[C@H](C(=O)N[C@@H](CCCNC(=N)N)C(=O)NCC(=O)N[C@@H](CCCNC(=N)N)C(=O)N[C@@H](CCCCNC(=O)COCCOCCNC(=O)CC[C@H](NC(=O)CC[C@H](NC(=O)CCCCCCCCCCCNC(=O)CCCS(=O)(=O)NC(=O)CCCCCCCCCCCCCCCc1nnn(C(C)(C)C)n1)C(=O)O)C(=O)O)C(=O)O)C(C)C [Example 26, N-epsilon37-{2-[2-(2-{(S)-4-[(S)-4-(12-{4-[16-(2-tert-Butyl-2H-tetrazol-5-yl)-hexadecanoylsulfamoyl]butyrylamino}dodecanoylamino)-4-carboxybutyrylamino]-4-carboxybutyrylamino}ethoxy)ethoxy]acetyl}[DesaminoHis7,Glu22,Arg26,Arg34,Lys37] GLP-1 (7-37)]

— patent publication US9409966B2, “Glucagon-like peptide-1 derivatives and their pharmaceutical use” (priority 2007, dated 2016)
